Our source for the GI50 and TGI values is PubChem BioAssay (NCI).

Some test systems named below: HCT-116 colon; SF-295 CNS; SNB-75 CNS; NCI-H522 lung; SR leukemia; M14 melanoma; MALME-3M melanoma; OVCAR-8 ovarian; RXF 393 renal; OVCAR-5 ovarian.
Common to all, as to experiment: NCI anticancer screen, dose series, 48 h

Values joined by “and” are separate entries in the source; they are usually repeats but may differ in a detail not shown here. Identical values can stand only once.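 Cultured in 96-well plates, cells were exposed to test compound for 48 hours across five concentrations. GI50 = concentration required for 50% inhibition of growth. At the TGI there is no net growth.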

Take `Cc1ccc(C(SCC(N)C(=O)O)(c2ccc(C)cc2)c2ccc(C)cc2)cc1` (stereo not given): the GI50 was 0.829 µM in the assay on HCT-116 colon; 1.29 µM with SF-295 CNS; 6.69 µM in the assay on SNB-75 CNS; 1.01 µM in the assay on NCI-H522 lung; 1.92 µM in the assay on SR leukemia; 0.729 µM with M14 melanoma. Further, the GI50 in the assay with MALME-3M melanoma is 11.6 µM; in the assay on OVCAR-8 ovarian, 2.36 µM; with RXF 393 renal it was 1.46 µM; with OVCAR-5 ovarian, 9.2 µM. Further, the TGI with HCT-116 colon was 13 µM; in the assay on SF-295 CNS, 10.3 µM; in the assay with SNB-75 CNS it was over 38.2 µM; with NCI-H522 lung it was 16.7 µM; in the assay on SR leukemia, 6.91 µM; in the assay with M14 melanoma, 2.37 µM. The TGI was 26 µM in the assay on MALME-3M melanoma, 17.4 µM in the assay with OVCAR-8 ovarian, 14.8 µM with RXF 393 renal and over 48.6 µM in the assay with OVCAR-5 ovarian.

Take `CCCCCCCCCCCCCC1=NCCN1CCO`: the GI50 is 2.3 µM in the assay with HCT-116 colon; 2.19 µM in the assay on SF-295 CNS; 2.3 µM in the assay on SNB-75 CNS; 2.52 µM with NCI-H522 lung; 3.75 µM in the assay on SR leukemia; 3.68 µM in the assay on M14 melanoma. The GI50 is 12.7 µM with MALME-3M melanoma, 3.4 µM with OVCAR-8 ovarian, 2.72 µM with RXF 393 renal and 5.47 µM in the assay with OVCAR-5 ovarian. The TGI is 5.27 µM in the assay on HCT-116 colon; 6.18 µM in the assay with SF-295 CNS; 8.16 µM with SNB-75 CNS; 6.13 µM in the assay with NCI-H522 lung; over 100 µM with SR leukemia; 10.9 µM in the assay on M14 melanoma. Further, the TGI was 30.5 µM in the assay on MALME-3M melanoma, over 28.1 µM in the assay on OVCAR-8 ovarian, 7.43 µM in the assay with RXF 393 renal and 18.3 µM in the assay with OVCAR-5 ovarian.

`CN(Cc1cc(Br)cc(Br)c1O)Cc1cc(Br)cc(Br)c1O`: the GI50 in the assay with HCT-116 colon was 0.812 µM; in the assay with SF-295 CNS it was 0.847 µM; with SNB-75 CNS it was 12.9 µM; with NCI-H522 lung it was 1.73 µM; in the assay with SR leukemia, 0.675 µM; in the assay on M14 melanoma it was 1.69 µM. Also, the GI50 with MALME-3M melanoma is 3.51 µM; in the assay with OVCAR-8 ovarian, 1.94 µM; with RXF 393 renal, 2.65 µM; in the assay on OVCAR-5 ovarian it was 6.13 µM. The TGI in the assay with HCT-116 colon amounted to 12.3 µM; in the assay with SF-295 CNS, 11.9 µM; with SNB-75 CNS, 49.3 µM; in the assay with NCI-H522 lung, 7.14 µM; with SR leukemia, 28.3 µM; in the assay with M14 melanoma, 15.6 µM. Moreover, the TGI stood at 22 µM in the assay with MALME-3M melanoma, 16.1 µM in the assay on OVCAR-8 ovarian, 15.3 µM in the assay with RXF 393 renal and 21.9 µM in the assay with OVCAR-5 ovarian.

`COC(=O)[C@]12CC[C@@H](C)[C@H](C)[C@@H]1C1=CC[C@@H]3[C@@]4(C)C(C=O)=C[C@@](C)(COC(C)=O)C4=CC[C@@]3(C)[C@]1(C)CC2`: the GI50 in the assay with HCT-116 colon was 2.47 µM; in the assay on SF-295 CNS it was 2.98 µM; in the assay on SNB-75 CNS it was 2.91 µM; in the assay with NCI-H522 lung it was 7.97 µM; with SR leukemia, 2.22 µM; in the assay on M14 melanoma, 5.27 µM. Besides, the GI50 is 3.74 µM with MALME-3M melanoma, 4.46 µM in the assay with OVCAR-8 ovarian, 3.55 µM in the assay with RXF 393 renal and 5.75 µM in the assay with OVCAR-5 ovarian. Besides, the TGI came out at 10.4 µM in the assay on HCT-116 colon; 11.9 µM in the assay with SF-295 CNS; 19.2 µM in the assay with SNB-75 CNS; 20.5 µM in the assay with NCI-H522 lung; 7.83 µM in the assay on SR leukemia; 22.4 µM in the assay with M14 melanoma. Moreover, the TGI came to 15.5 µM in the assay on MALME-3M melanoma, 18.9 µM with OVCAR-8 ovarian, 14.1 µM in the assay on RXF 393 renal and 21.7 µM in the assay with OVCAR-5 ovarian.

As to `COC1CCN(C(=O)c2cc(Cc3n[nH]c(=O)c4ccccc34)ccc2F)CC1`, the GI50 with HCT-116 colon was over 100 µM; in the assay on SF-295 CNS it was 24.2 µM; in the assay on SNB-75 CNS, 9.12 µM; in the assay with NCI-H522 lung, 33.5 µM; in the assay with SR leukemia, 21.7 µM; in the assay with M14 melanoma, over 90.9 µM. The GI50 is over 100 µM with MALME-3M melanoma, over 73.2 µM with OVCAR-8 ovarian, 0.926 µM in the assay with RXF 393 renal and over 100 µM with OVCAR-5 ovarian. Further, the TGI in the assay on HCT-116 colon, in the assay on SF-295 CNS, in the assay on SNB-75 CNS, in the assay with NCI-H522 lung, in the assay on SR leukemia and in the assay with M14 melanoma was over 100 µM throughout. Further, the TGI is over 100 µM with MALME-3M melanoma, over 100 µM in the assay with OVCAR-8 ovarian, 45.2 µM in the assay on RXF 393 renal and over 100 µM with OVCAR-5 ovarian.

Take `CS(=O)(=O)Nc1ccc(-c2cc(-c3ccccc3)cc(C(N)=O)c2N)cc1`: the GI50 with HCT-116 colon is over 25 µM; in the assay with SF-295 CNS it was 24.6 µM; with SNB-75 CNS it was 8.89 µM; with NCI-H522 lung, 15.3 µM; with SR leukemia, 16.5 µM; in the assay on M14 melanoma, over 25 µM. Moreover, the GI50 in the assay with MALME-3M melanoma is over 25 µM; with OVCAR-8 ovarian, over 22.6 µM; in the assay with RXF 393 renal, over 25 µM; with OVCAR-5 ovarian it was over 25 µM. Besides, the TGI in the assay on HCT-116 colon, with SF-295 CNS, with SNB-75 CNS, in the assay with NCI-H522 lung, with SR leukemia and in the assay with M14 melanoma was over 25 µM each time. Also, the TGI with MALME-3M melanoma, in the assay on OVCAR-8 ovarian, in the assay with RXF 393 renal and in the assay on OVCAR-5 ovarian was over 25 µM each time.

For `Cc1ccccc1-n1ncc(C(=O)c2ccccc2)c1N`, the GI50 in the assay with HCT-116 colon is over 25 µM; with SF-295 CNS, over 25 µM; in the assay with SNB-75 CNS, over 9.3 µM; in the assay on NCI-H522 lung it was over 25 µM; in the assay with SR leukemia it was over 25 µM; in the assay with M14 melanoma it was over 25 µM. In addition, the GI50 in the assay on MALME-3M melanoma, in the assay with OVCAR-8 ovarian, in the assay on RXF 393 renal and in the assay with OVCAR-5 ovarian was over 25 µM in each case. The TGI in the assay with HCT-116 colon, with SF-295 CNS, in the assay on SNB-75 CNS, in the assay on NCI-H522 lung, in the assay with SR leukemia and in the assay with M14 melanoma was over 25 µM throughout. The TGI with MALME-3M melanoma, in the assay on OVCAR-8 ovarian, in the assay on RXF 393 renal and in the assay with OVCAR-5 ovarian was over 25 µM in each case.

Take `CC(C)(C)C(=O)OCOP(=O)(OCOC(=O)C(C)(C)C)C1CC(O)N(O)C1=O` (stereo not given): the GI50 in the assay on HCT-116 colon is 3.72 µM; in the assay with SF-295 CNS it was 15.7 µM; in the assay on SNB-75 CNS, 19.2 µM; in the assay on NCI-H522 lung it was 2.95 µM; in the assay on SR leukemia, 4.2 µM; in the assay on M14 melanoma, 8.44 µM. Besides, the GI50 with MALME-3M melanoma was 2.82 µM; in the assay with OVCAR-8 ovarian, 4.73 µM; in the assay on RXF 393 renal, 2.37 µM; in the assay with OVCAR-5 ovarian it was 20.4 µM. Also, the TGI is over 100 µM with HCT-116 colon; over 100 µM with SF-295 CNS; over 100 µM in the assay on SNB-75 CNS; 14.4 µM in the assay on NCI-H522 lung; 75.2 µM in the assay with SR leukemia; over 100 µM in the assay on M14 melanoma. For the same compound, the TGI is over 100 µM in the assay with MALME-3M melanoma, over 100 µM in the assay on OVCAR-8 ovarian, 7.71 µM in the assay on RXF 393 renal and over 100 µM in the assay on OVCAR-5 ovarian.

Regarding `Clc1ccc2c(c1)N(CCCN1CCCC1)c1ccccc1S2`, the GI50 in the assay on HCT-116 colon is 3.19 µM; with SF-295 CNS it was 6.83 µM; in the assay with SNB-75 CNS it was 3.4 µM; in the assay on NCI-H522 lung, 2.23 µM; in the assay on SR leukemia it was 2.01 µM; in the assay on M14 melanoma, 1.92 µM. The GI50 is 3.98 µM with MALME-3M melanoma, 9.64 µM in the assay with OVCAR-8 ovarian, 3.47 µM with RXF 393 renal and 12.7 µM in the assay on OVCAR-5 ovarian. For the same compound, the TGI in the assay on HCT-116 colon was found to be 12.1 µM; in the assay on SF-295 CNS it was 21.6 µM; in the assay on SNB-75 CNS, 16.4 µM; in the assay on NCI-H522 lung it was 7.11 µM; with SR leukemia, 4.91 µM; with M14 melanoma, 3.97 µM. Besides, the TGI in the assay on MALME-3M melanoma is 18.5 µM; in the assay on OVCAR-8 ovarian, 23.4 µM; in the assay with RXF 393 renal, 12.1 µM; in the assay with OVCAR-5 ovarian it was 28.3 µM.

Turning to `OCC(O)C(O)C(O)c1nn(-c2ccc(Cl)cc2)c2nc3cc(Cl)c(Cl)cc3nc12` (stereo not given), the TGI with HCT-116 colon was over 100 µM; in the assay on SF-295 CNS it was over 100 µM; in the assay with SNB-75 CNS, 11.1 µM; in the assay on NCI-H522 lung it was over 100 µM; in the assay on SR leukemia, over 100 µM; with M14 melanoma, over 100 µM. In addition, the TGI in the assay on MALME-3M melanoma is 71 µM; in the assay on OVCAR-8 ovarian, over 100 µM; with RXF 393 renal, 72.4 µM; with OVCAR-5 ovarian it was over 100 µM.

Regarding `CC1(C)CCC2=C(O1)c1ccccc1C(=O)C2=O`, the GI50 is 0.511 µM in the assay on HCT-116 colon; 1.67 µM in the assay on SF-295 CNS; 1.64 µM with SNB-75 CNS; 1.89 µM with NCI-H522 lung; 3.99 µM with SR leukemia; 1.69 µM with M14 melanoma. In addition, the GI50 in the assay on MALME-3M melanoma is 1.51 µM; in the assay with OVCAR-8 ovarian, 0.53 µM; in the assay with RXF 393 renal it was 1.66 µM; in the assay on OVCAR-5 ovarian it was 1.81 µM. Moreover, the TGI with HCT-116 colon is 2.01 µM and 0.738 µM; in the assay with SF-295 CNS it was 3.1 µM and 1.68 µM; with SNB-75 CNS, 3.01 µM and 1.35 µM; with NCI-H522 lung, 4.79 µM and 1.52 µM; in the assay on SR leukemia, over 100 µM; with M14 melanoma it was 3.31 µM and 0.801 µM. Moreover, the TGI is 2.84 µM and 0.974 µM with MALME-3M melanoma; 2.27 µM and 1.59 µM with OVCAR-8 ovarian; 3.04 µM and 2.94 µM in the assay with RXF 393 renal; 3.33 µM and 1.02 µM with OVCAR-5 ovarian.

With `CNCc1cc(OC)ccc1-c1ccc(OC)c(OC)c1OC`, the TGI in the assay with HCT-116 colon is over 100 µM; with SF-295 CNS, over 100 µM; in the assay with SNB-75 CNS it was over 96.7 µM; in the assay on NCI-H522 lung, over 100 µM; in the assay on SR leukemia it was over 100 µM; in the assay with M14 melanoma, over 100 µM. In addition, the TGI in the assay on MALME-3M melanoma, in the assay with OVCAR-8 ovarian, with RXF 393 renal and in the assay on OVCAR-5 ovarian was over 100 µM each time.
